Test results: ChEMBL document CHEMBL4825751, “Design, synthesis, and antitumor activity evaluation of steroidal oximes” (Bioorg Med Chem, 2021)
The source made the active and inactive calls. The rule behind the calls is not given here.

Assays:
PC-3 [1] = experiment: Cytotoxicity against human PC-3 cells assessed as cell viability measured after 72 hrs by MTS assay; format: functional, cell-based; conditions: PC-3, 72 h
HepG2 = experiment: Anticancer activity against human HepG2 cells assessed as inhibition of cell proliferation measured after 72 hrs by MTT assay; format: functional, cell-based; conditions: HepG2, 72 h
WiDr [2] = experiment: Anticancer activity against human WiDr cells assessed as inhibition of cell proliferation measured after 72 hrs by MTT assay; format: functional, cell-based
NCI-H1299 = experiment: Anticancer activity against human H1299 cells assessed as inhibition of cell proliferation measured after 72 hrs by MTT assay; format: functional, cell-based; conditions: NCI-H1299, 72 h
PC-3 [3] = experiment: Anticancer activity against human PC-3 cells assessed as inhibition of cell proliferation measured after 72 hrs by MTT assay; format: functional, cell-based; conditions: PC-3, 72 h
WiDr [4] = experiment: Induction of apoptosis in human WiDr cells assessed as late apoptotic/necrotic cells at 50 uM measured after 72 hrs by annexin-V and propidium iodide staining based flow cytometry analysis; format: functional, cell-based
PC-3 [5] = experiment: Induction of oxidative stress in human PC-3 cells assessed as increase in peroxide level at 15 uM incubated for 24 hrs by DCFH2 based green fluorescence assay; format: functional, cell-based
WiDr [6] = experiment: Induction of oxidative stress in human WiDr cells assessed as increase in peroxide level at IC50 concentration incubated for 24 hrs by DCFH2 based green fluorescence assay; format: functional, cell-based
PC-3 [7] = experiment: Induction of mitochondrial membrane potential loss in human PC-3 cells at IC50 concentration after 72 hrs by flow cytometry; format: functional, cell-based
WiDr [8] = experiment: Induction of oxidative stress in human WiDr cells assessed as increase in peroxide level at 15 uM incubated for 24 hrs by DCFH2 based green fluorescence assay; format: functional, cell-based
PC-3 [9] = experiment: Antiproliferative activity against human PC-3 cells assessed as reduction in cell viability at IC50 concentration measured after 72 hrs by Annexin-V and propidium iodide staining based flow cytometry analysis; format: functional
CCD-841CoN = experiment: Anticancer activity against human CCD841 CoN cells assessed as inhibition of cell proliferation measured after 72 hrs by MTT assay; format: cell-based
PC-3 [10] = experiment: Induction of apoptosis in human PC-3 cells assessed as apoptotic cells at IC50 concentration measured after 72 hrs by annexin-V and propidium iodide staining based flow cytometry analysis; format: functional
WiDr [11] = experiment: Antiproliferative activity aginst human WiDr cells assessed as reduction in cell viability at IC50 concentration measured after 72 hrs by annexin -V and propidium iodide staining based flow cytometry analysis; format: functional
PC-3 [12] = experiment: Induction of apoptosis in human PC-3 cells assessed as fold increase in BAX/BCL-2 ratio at 50 uM measured after 72 hrs relative to control; format: functional
WiDr [13] = experiment: Induction of mitochondrial membrane potential loss in human WiDr cells at IC50 concentration after 72 hrs by flow cytometry; format: functional, cell-based
PC-3 [14] = experiment: Induction of oxidative stress in human PC-3 cells assessed as increase in peroxide level at IC50 concentration incubated for 24 hrs by DCFH2 based green fluorescence assay; format: functional, cell-based
PC-3 [15] = experiment: Induction of cell cycle arrest in human PC-3 cells assessed as pre-G0/G1 phase at 40 uM measured after 72 hrs by propidium iodide based assay relative to control; format: functional
WiDr [16] = experiment: Induction of cell cycle arrest in human WiDr cells assessed as pre-G0/G1 phase at 40 uM measured after 72 hrs by propidium iodide based assay relative to control; format: functional
PC-3 [17] = experiment: Induction of apoptosis in human PC-3 cells assessed as apoptotic cells at 50 uM measured after 72 hrs by annexin-V and propidium iodide staining based flow cytometry analysis; format: functional
WiDr [18] = experiment: Effect on GSH expression in human WiDr cells incubated for 24 hrs by mercury orange based red fluorescence assay; format: functional, cell-based
PC-3 [19] = experiment: Induction of oxidative stress in human PC-3 cells assessed as increase in superoxide anion level at 15 uM incubated for 24 hrs by DHE based red fluorescence assay; format: functional, cell-based
WiDr [20] = experiment: Induction of oxidative stress in human WiDr cells assessed as increase in superoxide anion level at 15 uM incubated for 24 hrs by DHE based red fluorescence assay; format: functional, cell-based
PC-3 [21] = experiment: Induction of oxidative stress in human PC-3 cells assessed as increase in superoxide anion level at IC50 concentration incubated for 24 hrs by DHE based red fluorescence assay; format: functional, cell-based
PC-3 [22] = experiment: Induction of mitochondrial membrane potential loss in human PC-3 cells at 50 uM after 72 hrs by flow cytometry; format: functional
WiDr [23] = experiment: Induction of oxidative stress in human WiDr cells assessed as increase in superoxide anion level at IC50 concentration incubated for 24 hrs by DHE based red fluorescence assay; format: functional, cell-based
PC-3 [24] = experiment: Effect on GSH expression in human PC-3 cells incubated for 24 hrs by mercury orange based red fluorescence assay; format: functional, cell-based
PC-3 [25] = experiment: Induction of apoptosis in human PC-3 cells assessed as late apoptotic/necrotic cells at 50 uM measured after 72 hrs by annexin-V and propidium iodide staining based flow cytometry analysis; format: functional
PC-3 [26] = experiment: Induction of cell cycle arrest in human PC-3 cells assessed as G0/G1 phase measured after 72 hrs by cell cycle analysis relative to control; format: functional
WiDr [27] = experiment: Induction of cell cycle arrest in human WiDr cells assessed as G2/M phase at 40 uM measured after 72 hrs by propidium iodide based assay relative to control; format: functional
PC-3 [28] = experiment: Induction of apoptosis in human PC-3 cells assessed as increase in BAX/BCL-2 ratio at IC50 concentration measured after 72 hrs; format: functional, cell-based
WiDr [29] = experiment: Induction of apoptosis in human WiDr cells assessed as increase in BAX/BCL-2 ratio at IC50 concentration measured after 72 hrs; format: functional, cell-based
PC-3 [30] = experiment: Induction of apoptosis in human PC-3 cells assessed as necrotic cells at IC50 concentration measured after 72 hrs by annexin-V and propidium iodide staining based flow cytometry analysis; format: functional

CC(C)CCC[C@@H](C)[C@H]1CC[C@H]2[C@@H]3C/C(=N\O)C4C[C@@H](O)CC[C@]4(C)[C@H]3CC[C@]12C (some centres not stated)
IC50 (PC-3 [1]): 49.8 µM

O=c1[nH]cc(F)c(=O)[nH]1 [FLUOROURACIL]
IC50 (HepG2): 19 µM
IC50 (WiDr [2]): 10.5 µM

C[C@]12CCCC=C1CC[C@@H]1[C@@H]2CC[C@]2(C)C(=O)CC[C@@H]12
IC50 (HepG2): 17.7 µM
IC50 (NCI-H1299): 21.5 µM
IC50 (PC-3 [3]): 21.5 µM
IC50 (WiDr [2]): 28 µM

C[C@]12CC[C@H]3O[C@H]3[C@@H]1CC[C@@H]1[C@@H]2CC[C@]2(C)/C(=N/O)CC[C@@H]12
IC50 (HepG2): 64.3 µM
IC50 (PC-3 [3]): 77.9 µM
IC50 (WiDr [2]): 75 µM

C[C@]12CC[C@H]3[C@@H](CC[C@@]45O[C@@H]4CCC[C@]35C)[C@@H]1CC/C2=N\O
IC50 (HepG2): 52.7 µM
IC50 (WiDr [2]): 53.4 µM

C[C@]12CC[C@H]3O[C@H]3[C@@H]1CC[C@@H]1[C@@H]2CC[C@]2(C)C(=O)CC[C@@H]12
IC50 (HepG2): 32.6 µM
IC50 (PC-3 [3]): 46.8 µM
IC50 (WiDr [2]): 60.9 µM

C[C@]12CCC=C[C@@H]1CC[C@@H]1[C@@H]2CC[C@]2(C)C(=O)CC[C@@H]12
IC50 (HepG2): 15 µM
IC50 (PC-3 [3]): 23.1 µM

C[C@]12CC[C@H]3[C@@H](CC[C@@]45O[C@@H]4CCC[C@]35C)[C@@H]1CCC2=O
IC50 (HepG2): 42.4 µM
IC50 (PC-3 [3]): 62.1 µM
IC50 (WiDr [2]): 59.1 µM

C[C@]12CCCC=C1CC[C@@H]1[C@@H]2CC[C@]2(C)/C(=N/O)CC[C@@H]12
Activity (WiDr [4]): Active
Activity (PC-3 [5]): Active
Activity (WiDr [6]): Active
IC50 (HepG2): 18.2 µM
Activity (PC-3 [7]): Active
Activity (WiDr [8]): Active
Activity (PC-3 [9]): 75.46%
IC50 (CCD-841CoN): > 75 µM
Activity (PC-3 [10]): 6.25%
Activity (WiDr [11]): 38.67%
fold change (FC) (PC-3 [12]): 1.51
Activity (WiDr [13]): Active
Activity (PC-3 [14]): Active
Activity (PC-3 [15]): Active
Activity (WiDr [16]): Active
IC50 (NCI-H1299): 19.2 µM
Activity (PC-3 [17]): 32.37%
Activity (WiDr [18]): inactive
Activity (PC-3 [19]): Active
Activity (WiDr [20]): Active
IC50 (PC-3 [3]): 14.5 µM
IC50 (WiDr [2]): 16.1 µM
Activity (PC-3 [21]): Active
fold change (FC) (PC-3 [22]): 3.66
Activity (WiDr [23]): Active
Activity (PC-3 [24]): inactive

CC(C)C(=O)Nc1ccc([N+](=O)[O-])c(C(F)(F)F)c1 [FLUTAMIDE]
IC50 (NCI-H1299): > 500 µM
IC50 (PC-3 [3]): 58 µM

COc1cc([C@@H]2c3cc4c(cc3[C@@H](O[C@@H]3O[C@@H]5CO[C@@H](C)O[C@H]5[C@H](O)[C@H]3O)[C@H]3COC(=O)[C@H]23)OCO4)cc(OC)c1O [ETOPOSIDE]
IC50 (NCI-H1299): 230 µM

C[C@]12CCC=C[C@@H]1CC[C@@H]1[C@@H]2CC[C@]2(C)/C(=N/O)CC[C@@H]12
Activity (PC-3 [25]): 18.01%
Activity (PC-3 [26]): 9.66%
Activity (PC-3 [5]): Active
Activity (WiDr [6]): Active
Activity (WiDr [27]): Active
IC50 (HepG2): 23.9 µM
Activity (PC-3 [7]): Active
Activity (WiDr [8]): Active
Activity (PC-3 [9]): 72.74%
IC50 (CCD-841CoN): 31.7 µM
Activity (WiDr [11]): 47.67%
Activity (WiDr [13]): Active
Activity (PC-3 [14]): Active
Activity (PC-3 [28]): Active
Activity (WiDr [29]): Active
Activity (PC-3 [15]): Active
Activity (WiDr [16]): Active
IC50 (NCI-H1299): 18.6 µM
Activity (PC-3 [30]): 49.94%
Activity (WiDr [18]): inactive
Activity (PC-3 [19]): Active
Activity (WiDr [20]): Active
IC50 (PC-3 [3]): 13.8 µM
IC50 (WiDr [2]): 9.1 µM
Activity (PC-3 [21]): Active
Activity (WiDr [23]): Active
Activity (PC-3 [24]): inactive

CCc1c2c(nc3ccc(OC(=O)N4CCC(N5CCCCC5)CC4)cc13)-c1cc3c(c(=O)n1C2)COC(=O)[C@]3(O)CC [IRINOTECAN]
IC50 (WiDr [2]): 13.9 µM
